In PubChem BioAssay (NCI):
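Step 1: Grow cells in 96-well plates. Step 2: Expose to compound for 48 hours at 5 concentrations. Step 3: Interpolate endpoints linearly; if unreached, use highest concentration. The concentration for 50% growth inhibition is given as GI50. Definition used: TGI = concentration required for complete inhibition of growth.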

What was measured:
Assay in all cases: NCI tumour cell line growth inhibition, 48 h
[1] = test system: 786-0 renal
[2] = test system: CCRF-CEM leukemia
[3] = test system: COLO 205 colon
[4] = test system: HOP-92 NSCLC
[5] = test system: KM12 colon
[6] = test system: NCI-H522 lung
[7] = test system: SK-MEL-28 melanoma
[8] = test system: TK-10 renal
[9] = test system: RPMI-8226 leukemia
[10] = test system: DU-145 prostate

SMILES | TGI [1] | TGI [2] | TGI [3] | TGI [4] | TGI [5] | TGI [6] | TGI [7] | TGI [8] | TGI [9] | TGI [10] | GI50 [1] | GI50 [3] | GI50 [10] | GI50 [5] | GI50 [6] | GI50 [9] | GI50 [7] | GI50 [8]
CCC1(O)CC(c2ccccc2)N(C)C(c2ccccc2)C1 (configuration not stated) | > 100 µM | > 100 µM | > 100 µM | > 100 µM | > 100 µM | > 100 µM | > 100 µM | > 100 µM |  |  |  |  |  |  |  |  |  | 
O=C1OC(/C=C/c2ccccc2)C(=O)C1=O (configuration not stated) | > 100 µM | > 100 µM | > 100 µM | > 100 µM | > 100 µM | > 100 µM | > 100 µM | > 100 µM | > 100 µM |  |  |  |  |  |  |  |  | 
c1ccc2c(c1)-c1nc3ccccc3cc1C2N1CCOCC1 (configuration not stated) | > 100 µM | > 100 µM | > 100 µM |  | > 100 µM | > 100 µM | > 100 µM | > 100 µM | > 100 µM | > 100 µM |  |  |  |  |  |  |  | 
CN=C(NC#N)NCc1ccccc1 | > 100 µM | > 100 µM | > 100 µM | > 100 µM | > 100 µM | > 100 µM | > 100 µM | > 100 µM | > 100 µM |  |  |  |  |  |  |  |  | 
CCCCCCCCCCCCCCCc1nc(SCC(=O)O)n[nH]1 | 42.1 µM | > 100 µM |  | 65 µM | > 100 µM | > 100 µM | > 100 µM | > 100 µM | > 100 µM |  |  |  |  |  |  |  |  | 
COc1ccc2c(c1)cn1c3ccc(OC)cc3[nH]c(=O)c21 | 1.56 µM |  | 0.0294 µM |  | 0.247 µM | 0.15 µM | 2.15 µM | 2.44 µM | 0.0984 µM |  | < 0.0231 µM | < 0.0175 µM | < 0.0217 µM | < 0.0187 µM | < 0.0134 µM | 0.0253 µM | < 0.0285 µM | 1.17 µM
CC(=O)c1ccc(-c2ccc(C(C)=O)s2)s1 | > 100 µM | > 100 µM | > 100 µM | > 100 µM | > 100 µM | > 100 µM | 3.24 µM | > 100 µM | > 100 µM |  |  |  |  |  |  |  |  | 
O=C(c1ccccc1)C(c1ccccc1)C1(O)C(=O)Nc2ccc(Br)cc21 (configuration not stated) | > 100 µM | 47.7 µM | > 100 µM | > 100 µM | > 100 µM | 59.6 µM | > 100 µM | > 100 µM | 98.9 µM |  |  |  |  |  |  |  |  | 
CC(NC(=O)C1(N)CCCC1)C(=O)O (configuration not stated) | > 100 µM | > 100 µM | > 100 µM |  | > 100 µM | > 100 µM | > 100 µM | > 100 µM | > 100 µM | > 100 µM |  |  |  |  |  |  |  | 
COc1cc(C2C(Cl)C(=O)N2NC(=O)c2ccccc2O)cc(OC)c1OC (configuration not stated) | > 10 µM | > 10 µM |  | > 10 µM | > 10 µM | 8.21 µM |  | > 10 µM |  | 1.91 µM |  |  |  |  |  |  |  | 
CCn1cc(C(=O)O)c(=O)c2cc(F)c(N3CCNCC3)nc21 | > 100 µM | > 100 µM | > 100 µM | > 100 µM | > 100 µM | > 100 µM | > 100 µM | > 100 µM | > 100 µM |  |  |  |  |  |  |  |  | 
Fc1cccc(C2SCc3nc4ccccc4n32)c1 (configuration not stated) | > 100 µM | > 100 µM | > 100 µM | 55.7 µM | > 100 µM | 96.1 µM | > 10 µM | > 10 µM | > 100 µM |  |  |  |  |  |  |  |  | 
O=C(O)c1cccc(F)c1C(=O)c1ccc2ccccc2c1 | > 100 µM | > 100 µM | 6.1 µM | > 100 µM | > 100 µM | > 100 µM | > 100 µM | > 100 µM | > 100 µM |  |  |  |  |  |  |  |  | 
COC(=O)C1=CCS(=O)(=O)C1 | > 100 µM |  | > 100 µM | > 100 µM | > 100 µM |  | > 100 µM | > 100 µM | > 100 µM |  |  |  |  |  |  |  |  | 
Cc1cc2c(C=O)[nH]nc2c(C#N)c1C | > 100 µM | > 100 µM | > 100 µM | 99.4 µM | > 100 µM | 22.7 µM | > 100 µM | > 100 µM | > 100 µM |  |  |  |  |  |  |  |  | 
O=C1C2Cc3ccccc3CN2C(=O)N1CCN1CCOCC1 (configuration not stated) | > 100 µM | > 100 µM | > 100 µM |  | > 100 µM | > 100 µM | > 100 µM | > 100 µM | > 100 µM |  |  |  |  |  |  |  |  | 
CC12CCC(C)(c3cc(O)c(O)cc31)c1cc(O)c(O)cc12 | 27.9 µM | 11.1 µM | 30 µM | 25.4 µM | 32.7 µM | 6.38 µM | 34.1 µM | 40.3 µM | 30 µM |  |  |  |  |  |  |  |  | 
O=CN/C=C\c1cc(O)ccc1O | 31.1 µM | > 100 µM | 29.5 µM | 28 µM | > 100 µM | 10 µM | > 64.9 µM | > 64.7 µM | 44.6 µM |  |  |  |  |  |  |  |  | 
O=c1c2ccc(Br)cc2nc(-c2ccccc2)n1NC1OC(CO)C(O)C(O)C1O (configuration not stated) | > 100 µM | > 100 µM | > 100 µM | > 100 µM | > 100 µM | > 100 µM | > 100 µM | > 100 µM | > 100 µM |  |  |  |  |  |  |  |  | 
COc1ccccc1NC(=O)C(=O)C(C#N)CC(C)(C)C=O (configuration not stated) | > 100 µM |  |  | > 100 µM | > 100 µM | > 100 µM | > 100 µM | > 100 µM | > 100 µM |  |  |  |  |  |  |  |  | 
OC1/C(=C/c2ccccc2)CNC/C1=C\c1ccccc1 (configuration not stated) | > 100 µM | > 100 µM | > 100 µM | > 100 µM | > 100 µM | > 100 µM | > 100 µM | > 100 µM | > 100 µM |  |  |  |  |  |  |  |  | 
COc1cc(C2C(C(=O)Nc3ccccc3C)=C(C)NC(C)=C2C(=O)Nc2ccccc2C)ccc1O | > 100 µM | > 100 µM | > 100 µM | > 100 µM | > 100 µM | > 100 µM | > 100 µM | > 100 µM | > 100 µM |  |  |  |  |  |  |  |  | 
OCC1C2C=CC(O2)[C@H]1CO (some centres not stated) | > 100 µM | > 100 µM | > 100 µM | > 100 µM | > 100 µM | > 100 µM | > 100 µM | > 100 µM | > 100 µM |  |  |  |  |  |  |  |  | 
O=c1cc(/C=C/c2ccccc2)c2ccc(O/C(=C\c3ccccc3)c3nc4ccccc4c(=O)o3)cc2o1 | > 100 µM | 66.5 µM | 73.8 µM | 86.1 µM | > 100 µM |  | 34.5 µM | > 100 µM | 60.3 µM |  |  |  |  |  |  |  |  | 
